Experimental data reported in patent US8063225B2, “Tricyclic compound derivatives useful in the treatment of neoplastic diseases, inflammatory disorders and immunomodulatory disorders” (Chembridge Corporation, priority 2006, dated 2011).

Key:
InsR = target: T1, InsR (Homo sapiens, UniProt P06213); assay: Tyrosine kinase assay (Kinase-Glo or AlphaScreen), InsR; settings: biochemical tyrosine kinase assay
T1 construct: 6×His- or GST-tagged kinase domain fragments of the corresponding RTKs expressed in baculovirus system; host or cells: baculovirus system
Procedure: (§1) To determine inhibition of several tyrosine kinases, such as IGF1R, InsR, Alk, TrkA and Jak2, kinase assays are conducted using either Kinase-Glo (Promega) or AlphaScreen (PerkinElmer) kinase assay platforms. The Kinase-Glo Luminescent Kinase Assay is a homogeneous method for measuring kinase activity by determining the amount of ATP remaining after a kinase reaction. The luminescent signal is proportional to the amount of ATP and inversely proportional to the amount of kinase activity. Tyrosine kinase PT66 AlphaScreen Assay is a high-sensitivity homogeneous, anti-phosphotyrosine antibody-mediated luminescent proximity method measuring, incorporation of phosphate in synthetic poly(Glu-Tyr) substrate. The kinase preparations used consist of purified recombinant, 6×His- or GST-tagged kinase domain fragments of the corresponding RTKs expressed in baculovirus system.
(§2) The IGF1R tyrosine kinase is assayed in Kinase-Glo ATP depletion assay using the synthetic polymer poly(Glu-Tyr, 4:1) (Sigma Chemicals) as a phosphoacceptor substrate. Each reaction mixture consists of a total volume of 10 μl and contains 40 ng of the enzyme, 5 μg of poly(Glu-Tyr), 10 μM of ATP and variable concentrations of test compounds. The mixtures also contain 50 mM Tris-HCl, pH 7.5; 5 mM MgCl2; 5 mM MnCl2; 2 mM DTT and 0.01% Tween 20. The reaction mixtures are incubated at 37° C. for 60 minutes and residual concentration of ATP in the mixture is determined by adding luciferase-containing Kinase-Glo (Promega) development reagent and counting luminescence levels using Fusion Universal Microplate Analyzer (PerkinElmer). Tested compounds are dissolved in dimethyl sulfoxide to a stock concentration of 10 mM and are typically evaluated in the assay at eight concentrations in 1 nM to 20 μM range, each in quadruplicate. […] IC50 values are derived by non-linear regression analysis using Prism 3.0 software (Graphpad Software). Other tyrosine kinases are assayed according to the same protocol after titrating amount of the enzyme to provide optimal signal-to-noise ratio and no more than 30% of total ATP consumption in the reaction conditions used.
(§3) The IGF1R tyrosine kinase is assayed in Phosphotyrosine (PT66 or PT 100) AlphaScreen chemiluminescent assay (PerkinElmer) according to the manufacturerer's recommendations. Each kinase reaction mixture consists of a total volume of 15 μl and contains 0.1-1 ng of the enzyme, 7 ng of biotinylated poly(Glu-Tyr) (Cis-Bio), 10 μM of ATP and variable concentrations of test compounds. The mixtures also contain 50 mM Tris-HCl, pH 7.5; 5 mM MgCl2; 5 mM MnCl2; 2 mM DTT and 0.01% Tween 20. The reaction mixtures are incubated at room temperature for 30 minutes. Ten (10) μl of the mixture of […] and donor beads (as supplied by the manufacturer) is then added to the reaction and the incubation is continued for an additional 60 minutes.

Jak2 = target: T2, Jak2 (Homo sapiens, UniProt O60674); assay: Tyrosine kinase assay (Kinase-Glo or AlphaScreen), Jak2; settings: biochemical tyrosine kinase assay
T2 construct: 6×His- or GST-tagged kinase domain fragments of the corresponding RTKs expressed in baculovirus system; host or cells: baculovirus system
Procedure: as §1, §2, §3

Karpas-299 = assay: Cell proliferation inhibition, Cell Titer-Glo, Karpas-299; type: cell-based; settings: Homo sapiens; cell proliferation assay, Karpas-299 cells
Source text: (§4) IGF1R and other tyrosine kinase inhibitors can inhibit the proliferation of certain cancer cell lines indicating their possible therapeutic utility for treating the corresponding cancer types. Cancer cell lines of interest and control normal lines, including CHO, HEK293, BA/F3, COLO205, PC3, DU145, MCF7, Panc1, ACHN, Hep G2, H460, K562, TT, U87-MG, CAOV-3, SK-MEL5, Karpas 299 and human multiple myeloma cell lines H929, MM1s, MM1r, UTMC2, CPM2, KMS11, My5, KMS12PE, My7, JJN3, KMS18, U266, SKMM2, RPMI-8226 are plated in white, clear-bottomed 384-well cell culture plates at 2500-5000 cells per well and supplied with dilutions of tested compounds After a desired period of time (typically 3 days), the number of viable cells is quantitated by using Cell Titer-Glo Luminescent Cell Viability Assay (Promega), a cell proliferation assay system based on detection of total amount of ATP present as a measure of cell metabolic activity. The plated cells are mixed with the Cell Titer-Glo developing reagent and counted in a luminescence multiwell plate reader according to the standard manufacturer's protocol to generate IC50 curves for cell proliferation inhibition. Results are typically reported as percent of growth (% viability =(OD72h(compound)−ODday0))/(OD72h(no compound)−ODday0). Alternatively, viable cells are quantitated by using the conventional colorimetric MTT assay. The MTT assay is based on the cleavage of the yellow tetrazolium salt MTT to purple formazan crystal by metabolic active cells. The formazan is then solubilized, and the concentration determined by optical density at 570 nm. The cells plated and incubated with a compound as described above are supplemented with the solution of MTT and incubated for 2-3 hours. The growth medium is removed and dimethyl sulfoxide is added into each well to dissolve the formazan. The absorbance is measured on an ELISA plate reader with a test wavelength of 570 nm and a background subtraction wavelength of 630 nm to obtain sample signal (OD570-OD630). […] The results are reported in terms of IC50 value for a particular compound and a cell line in the standard 3-day proliferation assay using Cell Titer-Glo. […] The results are reported in terms of IC50 value for a particular compound and a cell line in the standard 3-day proliferation assay using MTT assay.

IGF1R tyrosine kinase = target: T3, IGF1R tyrosine kinase (Homo sapiens, UniProt P08069); assay: IGF1R tyrosine kinase assay (Kinase-Glo ATP depletion or PT66/PT100 AlphaScreen); settings: biochemical tyrosine kinase assay
T3 construct: 6×His- or GST-tagged kinase domain fragments of the corresponding RTKs expressed in baculovirus system; host or cells: baculovirus system
Procedure: as §1, §2, §3

Ba/F3 = assay: Cell proliferation inhibition, Cell Titer-Glo, Ba/F3; type: cell-based; settings: Mus musculus, BaF3; cell proliferation assay, Ba/F3 cells
Source text: as §4

Alk = target: T4, Alk (Homo sapiens, UniProt Q9UM73); assay: Tyrosine kinase assay (Kinase-Glo or AlphaScreen), Alk; settings: biochemical tyrosine kinase assay
T4 construct: 6×His- or GST-tagged kinase domain fragments of the corresponding RTKs expressed in baculovirus system; host or cells: baculovirus system
Procedure: as §1, §2, §3

K562 = assay: Cell proliferation inhibition, Cell Titer-Glo, K562; type: cell-based; settings: Homo sapiens; cell proliferation assay, K562 cells
Source text: as §4

T1 sequence (P06213 1023-1298 limits assumed, species assumed): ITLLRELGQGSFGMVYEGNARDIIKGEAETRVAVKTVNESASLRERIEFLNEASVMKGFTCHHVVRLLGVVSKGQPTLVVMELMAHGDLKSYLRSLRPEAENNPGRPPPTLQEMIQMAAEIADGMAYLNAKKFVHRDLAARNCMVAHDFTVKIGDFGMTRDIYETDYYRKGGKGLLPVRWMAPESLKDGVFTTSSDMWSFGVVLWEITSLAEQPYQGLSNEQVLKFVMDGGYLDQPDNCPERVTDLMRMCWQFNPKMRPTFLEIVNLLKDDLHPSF
T4 sequence (Q9UM73 1116-1392 limits assumed, species assumed): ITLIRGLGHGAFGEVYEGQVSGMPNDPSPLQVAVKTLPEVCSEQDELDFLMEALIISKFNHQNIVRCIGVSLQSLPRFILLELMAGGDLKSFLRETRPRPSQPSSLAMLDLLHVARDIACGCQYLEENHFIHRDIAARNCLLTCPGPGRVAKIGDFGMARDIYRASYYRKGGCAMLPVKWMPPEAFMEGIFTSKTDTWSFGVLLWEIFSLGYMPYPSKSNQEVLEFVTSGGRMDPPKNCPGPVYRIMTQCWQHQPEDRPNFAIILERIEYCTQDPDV
T3 sequence (P08069 999-1274 limits assumed): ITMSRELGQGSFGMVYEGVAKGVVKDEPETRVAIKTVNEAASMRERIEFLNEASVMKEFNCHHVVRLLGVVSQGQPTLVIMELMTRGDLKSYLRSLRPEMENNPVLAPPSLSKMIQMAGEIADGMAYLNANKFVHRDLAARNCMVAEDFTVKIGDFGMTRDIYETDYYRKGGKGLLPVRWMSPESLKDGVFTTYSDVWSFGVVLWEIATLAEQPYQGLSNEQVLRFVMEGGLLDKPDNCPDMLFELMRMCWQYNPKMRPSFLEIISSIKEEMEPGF
T2 sequence (O60674 849-1124 limits assumed, species assumed): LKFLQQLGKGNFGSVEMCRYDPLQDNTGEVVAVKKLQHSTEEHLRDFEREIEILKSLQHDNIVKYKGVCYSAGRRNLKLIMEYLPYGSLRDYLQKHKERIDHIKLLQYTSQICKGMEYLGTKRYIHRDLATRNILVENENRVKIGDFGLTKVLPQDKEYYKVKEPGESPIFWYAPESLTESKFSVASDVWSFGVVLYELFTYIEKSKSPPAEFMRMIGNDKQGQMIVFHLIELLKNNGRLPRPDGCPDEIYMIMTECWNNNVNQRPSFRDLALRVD

Row | IC50 (InsR) [µM] | IC50 (Jak2) [µM] | IC50 (Karpas-299) [µM] | IC50 (IGF1R tyrosine kinase) [nM] | IC50 (Ba/F3) [µM] | IC50 (Alk) [µM] | IC50 (K562) [µM] | Compound
1 | < 0.5 | 5 to 15 | > 15 | 500 to 5000 | > 15 | 5 to 15 | > 15 | Cc1ccc(OCC(O)CNc2cc[nH]c(=O)c2-c2nc3cc4c(cc3[nH]2)C(=O)N(C2CCN(C)CC2)C4=O)cc1C (stereo not drawn) [compound 104]
2 | 0.5 to 5 | 0.5 to 5 | 5 to 15 | 500 to 5000 | 5 to 15 | 0.5 to 5 | 0.5 to 5 | Cc1ccc(SC[C@H](O)CNc2cc[nH]c(=O)c2-c2nc3cc4c(cc3[nH]2)C(=O)N(C2CCN(C)CC2)C4=O)c(C)c1 [compound 79]
3 | 5 to 15 | 5 to 15 | 5 to 15 | 500 to 5000 | > 15 | 0.5 to 5 | 5 to 15 | Cc1ccc(OC[C@H](O)CNc2cc[nH]c(=O)c2-c2nc3cc4c(cc3[nH]2)C(=O)N(C2CCN(C)CC2)C4=O)c(C(C)(C)C)c1 [compound 80]
4 | < 0.5 | 0.5 to 5 | 0.5 to 5 | < 500 | 5 to 15 | 0.5 to 5 | > 15 | COc1ccc(OC[C@H](O)CNc2cc[nH]c(=O)c2-c2nc3c(C)c4c(cc3[nH]2)C(=O)N(C2CCN(C)CC2)C4=O)c(C)c1Cl [compound 138]
5 | 5 to 15 | 5 to 15 | 0.5 to 5 | < 500 | 0.5 to 5 | > 15 | 0.5 to 5 | Cc1ccc(OC[C@H](O)CNc2ccnc(O)c2-c2nc3cc4c(cc3[nH]2)C(=O)N([C@H]2CCCN(C)C2)C4=O)c(C)c1 [compound 103]

Continued, compound first:

Row | Compound | IC50 (InsR) [µM] | IC50 (Jak2) [µM] | IC50 (Karpas-299) [µM] | IC50 (IGF1R tyrosine kinase) [nM] | IC50 (Ba/F3) [µM] | IC50 (Alk) [µM] | IC50 (K562) [µM]
6 | O=C1c2cc3nc(-c4c(NC[C@@H](O)c5cccc(Cl)c5)cc[nH]c4=O)[nH]c3cc2C(=O)N1CCO [compound 43] | 0.5 to 5 | 0.5 to 5 | 5 to 15 | 500 to 5000 | > 15 | > 15 | 5 to 15
7 | Cc1ccc(OC[C@H](O)CNc2ccnc(O)c2-c2nc3cc4c(cc3[nH]2)C(=O)N(C2CCN(C)CC2)C4=O)c(C)n1 [compound 68] | 0.5 to 5 | 0.5 to 5 | > 15 | < 500 | > 15 | 5 to 15 | > 15
8 | CN(C)CCc1ncccc1OC[C@H](O)CNc1ccnc(O)c1-c1nc2cc3c(cc2[nH]1)C(=O)N(C1CCN(C)CC1)C3=O [compound 72] | 0.5 to 5 | 0.5 to 5 | > 15 | 500 to 5000 | > 15 | 0.5 to 5 | > 15
9 | CN(C)CC(C)(C)CN1C(=O)c2cc3nc(-c4c(NCC(O)COc5cccc(Cl)c5)ccnc4O)[nH]c3cc2C1=O (stereo not drawn) [compound 61] | 5 to 15 | 5 to 15 | > 15 | 500 to 5000 | > 15 | > 15 | > 15
10 | CN1CCC(N2C(=O)c3cc4nc(-c5c(NC[C@@H](O)COc6ccc(F)c(Cl)c6)ccnc5O)[nH]c4cc3C2=O)CC1 [compound 74] | 0.5 to 5 | 0.5 to 5 | 0.5 to 5 | 500 to 5000 | 0.5 to 5 | 5 to 15 | 0.5 to 5
11 | CN1CCC(N2C(=O)c3cc4nc(-c5c(NCC(O)COc6ccc(Cl)cc6)cc[nH]c5=O)[nH]c4cc3C2=O)CC1 (stereo not drawn) [compound 39] | 0.5 to 5 | 0.5 to 5 | 0.5 to 5 | 500 to 5000 | 0.5 to 5 | 0.5 to 5 | 0.5 to 5
12 | CN1CCC(N2C(=O)c3cc4nc(-c5c(NC[C@@H](O)COc6cccc(Cl)c6)ccnc5O)[nH]c4cc3C2=O)CC1 [compound 75] | 0.5 to 5 | 0.5 to 5 | 0.5 to 5 | 500 to 5000 | 0.5 to 5 | 0.5 to 5 | 0.5 to 5
13 | O=C1c2cc3nc(-c4c(NC[C@@H](O)c5cccc(Cl)c5)ccnc4O)[nH]c3cc2C(=O)N1CCN1CCOCC1 [compound 8] | 0.5 to 5 | 0.5 to 5 | > 15 | 500 to 5000 | > 15 | 0.5 to 5 | > 15
14 | Cc1ccc(Cl)cc1OC[C@@H](O)CNc1ccnc(O)c1-c1nc2cc3c(cc2[nH]1)C(=O)N(C1CCN(C)CC1)C3=O [compound 56] | 0.5 to 5 | 0.5 to 5 | 0.5 to 5 | 500 to 5000 | 0.5 to 5 | 0.5 to 5 | 0.5 to 5
15 | CN1CCC(N2C(=O)c3cc4nc(-c5c(NNC(=O)C(O)c6ccccc6)ccnc5O)[nH]c4cc3C2=O)CC1 (stereo not drawn) [compound 67] | 5 to 15 | 0.5 to 5 | > 15 | > 15000 | > 15 | 5 to 15 | > 15
